These are literature values, as cited in patent US20220088150A1, “Octreotide Microsphere-Based Arterial Embolization for Treating Obesity” (Biovena Science, LLC, priority 2018, published 2022).

Data set [1] deals with ghrelin secretion. As to conditions: continuous infusion, dose- and time-dependent.
The test system of data set [2] is insulin hypersecretion. The note with it: six months, 5-15 μg/kg/day.
For data set [3] the following is noted: subcutaneously 5-15 μg/kg/day, six months, compared with placebo.

Each structure is given as a SMILES string.

On to `C[C@@H](O)[C@@H]1NC(=O)[C@H](CCCCN)NC(=O)[C@@H](Cc2c[nH]c3ccccc23)NC(=O)[C@H](Cc2ccccc2)NC(=O)[C@@H](NC(=O)[C@H](N)Cc2ccccc2)CSSC[C@@H](C(=O)N[C@H](CO)[C@@H](C)O)NC1=O` [octreotide, D-phenylalanyl-L-cysteinyl-L-phenylalanyl-D-tryptophyl-L-lysyl-L-threonyl-L-cysteinyl-L-threoninol (2→7)-disulfide], for which the ghrelin secretion result in data set [1] is given as “suppresses ghrelin secretion”. In addition, the splanchnic blood flow entry (healthy human subjects) is “reduces splanchnic blood flow”. Besides, the gastric emptying entry (human, in vivo) was “delays gastric emptying”. The calorie intake decrease entry in data set [2] is listed as “approximately 700 kcal/day”. The BMI result in data set [2] (vs pre-study observation period, p=0.0001) is recorded as “BMI decrease”. Besides, in data set [2] (vs six-month pre-study observation period, p=0.04), the weight loss result is “greater weight loss”. Further, in data set [3], the “weight and BMI” value is “effective in stabilizing weight and BMI”.
